From ChEMBL document CHEMBL4725412, “Augmenting the Activity of Macrolide Adjuvants against Acinetobacter baumannii” (2020)

Experiments:
Assay type in all cases: functional
[1] = tested on: Acinetobacter baumannii; assay: Potentiation of clarithromycin-induced antibacterial activity against Acinetobacter baumannii 3785 assessed as fold reduction in clarithromycin MIC at 7.5 uM incubated for 16 hrs by broth microdilution method
[2] = tested on: Acinetobacter baumannii; assay: Potentiation of clarithromycin-induced antibacterial activity against Acinetobacter baumannii 4991 assessed as fold reduction in clarithromycin MIC at 7.5 uM incubated for 16 hrs by broth microdilution method
[3] = tested on: Acinetobacter baumannii; assay: Potentiation of clarithromycin-induced antibacterial activity against Acinetobacter baumannii 3806 assessed as fold reduction in clarithromycin MIC at 7.5 uM incubated for 16 hrs by broth microdilution method
[4] = tested on: Acinetobacter baumannii; assay: Antibacterial activity against Acinetobacter baumannii 8967 assessed as reduction in microbial growth incubated for 16 hrs by broth microdilution method
[5] = tested on: Acinetobacter baumannii; assay: Antibacterial activity against Acinetobacter baumannii 3560 assessed as reduction in microbial growth incubated for 16 hrs by broth microdilution method
[6] = tested on: Acinetobacter baumannii; assay: Potentiation of clarithromycin-induced antibacterial activity against Acinetobacter baumannii 4052 assessed as fold reduction in clarithromycin MIC at 7.5 uM incubated for 16 hrs by broth microdilution method
[7] = tested on: Acinetobacter baumannii; assay: Potentiation of clarithromycin-induced antibacterial activity against Acinetobacter baumannii 3560 assessed as fold reduction in clarithromycin MIC at 7.5 uM incubated for 16 hrs by broth microdilution method
[8] = tested on: Acinetobacter baumannii; assay: Antibacterial activity against Acinetobacter baumannii 3785 assessed as reduction in microbial growth incubated for 16 hrs by broth microdilution method
[9] = tested on: Acinetobacter baumannii; assay: Potentiation of clarithromycin-induced antibacterial activity against Acinetobacter baumannii 5001 assessed as fold reduction in clarithromycin MIC at 7.5 uM incubated for 16 hrs by broth microdilution method
[10] = tested on: Acinetobacter baumannii; assay: Potentiation of clarithromycin-induced antibacterial activity against Acinetobacter baumannii AB5075 assessed as clarithromycin MIC at 15 uM incubated for 16 hrs by broth microdilution method (reference value: […] ug/ml)

MIC [4]: 25 µM | MIC [5]: 25 µM | MIC [8]: 25 µM | MIC [10]: 0.125 mg/L
SMILES: Cl.Nc1nc(-c2ccc(NC(=O)Nc3cc(Br)cc(Br)c3)cc2)c[nH]1
fold change (FC) [1]: 16 | fold change (FC) [2]: 16 | fold change (FC) [3]: 16 | fold change (FC) [6]: 16 | fold change (FC) [7]: 16 | fold change (FC) [9]: 16
